# Laboratory results as given in the supplement of paper PMC10307832.
# Assays:
# Assay in all cases: relative viability (nuclei count vs DMSO), 5 days (fraction); higher = more cells survive
# [1] = compound: CN1C=C(C2=CC=CC=C21)/C=C\3/C4=C(C=CC=N4)NC3=O + CC1(C)CCC(c2ccc(Cl)cc2)=C(CN2CCN(c3ccc(C(=O)NS(=O)(=O)c4ccc(N[C@H](CCN5CCOCC5)CSc5ccccc5)c(S(=O)(=O)C(F)(F)F)c4)cc3)CC2)C1 [Navitoclax] (partner 0.5 µM)
# How it was run: (§1)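 A single step with final 0.05% Triton X-100, 1% formaldehyde and 1 ug/ml Hoechst fixed the cells and stained nuclei 5 days after treatment. Lung cancer cell lines in 1536-well plates had been treated by pin tool the day after seeding with one drug alone or a fixed anchor-drug dose plus five library-drug doses (not always all listed) in √10 steps, and nuclei were counted on 4× images. Relative viability is the ratio of nuclei in treated wells to nuclei in vehicle wells, taken as the median of duplicate plates.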
# [2] = compound: CC(=O)Nc1cccc(-n2c(=O)n(C3CC3)c(=O)c3c(Nc4ccc(I)cc4F)n(C)c(=O)c(C)c32)c1 [Trametinib] + Cc1nc(NC(=O)N2CCC[C@H]2C(N)=O)sc1-c1ccnc(C(C)(C)C(F)(F)F)c1 [Alpelisib] (partner 2 µM)
# How it was run: as §1
# [3] = compound: CC(=O)Nc1cccc(-n2c(=O)n(C3CC3)c(=O)c3c(Nc4ccc(I)cc4F)n(C)c(=O)c(C)c32)c1 [Trametinib] + NC(=O)Nc1cc(-c2cccc(F)c2)sc1C(=O)N[C@H]1CCCNC1 [AZD7762] (partner 0.2 µM)
# How it was run: as §1
# [4] = compound: CC(=O)Nc1cccc(-n2c(=O)n(C3CC3)c(=O)c3c(Nc4ccc(I)cc4F)n(C)c(=O)c(C)c32)c1 [Trametinib] + CCNC(=O)c1noc(-c2cc(C(C)C)c(O)cc2O)c1-c1ccc(CN2CCOCC2)cc1 [Luminespib] (partner 0.01 µM)
# How it was run: as §1
Cell Line,relative viability ([1]; first compound 0.02 µM),relative viability ([1]; first compound 0.06325 µM),relative viability ([1]; first compound 0.2 µM),relative viability ([1]; first compound 0.6325 µM),relative viability ([1]; first compound 2 µM),relative viability ([2]; first compound 0.0025 µM),relative viability ([2]; first compound 0.007906 µM),relative viability ([2]; first compound 0.025 µM),relative viability ([2]; first compound 0.07906 µM),relative viability ([2]; first compound 0.25 µM),relative viability ([3]; first compound 0.0025 µM),relative viability ([3]; first compound 0.007906 µM),relative viability ([3]; first compound 0.025 µM),relative viability ([3]; first compound 0.07906 µM),relative viability ([3]; first compound 0.25 µM),relative viability ([4]; first compound 0.0025 µM),relative viability ([4]; first compound 0.007906 µM),relative viability ([4]; first compound 0.025 µM),relative viability ([4]; first compound 0.07906 µM),relative viability ([4]; first compound 0.25 µM)
201T,1.22,1.21,1.24,1.27,1.23,1.02,0.914,0.866,0.893,0.765,0.632,0.607,0.473,0.592,0.557,1.08,0.866,0.856,0.852,0.8
A549,1.36,1.27,1.15,1.24,1.15,0.6,0.37,0.206,0.158,0.0675,,,,,,,,,,
A-427,0.975,0.887,,0.984,1.06,0.91,1.02,0.437,0.607,0.269,0.662,0.573,0.525,0.373,0.371,0.805,0.871,0.691,0.661,0.297
ABC-1,,,,,,0.729,0.703,0.564,0.583,0.554,0.801,0.756,0.562,0.555,0.915,0.665,0.819,0.446,0.307,0.439
BEN,0.0672,0.0704,0.0656,0.0636,0.0694,0.951,0.939,,0.763,0.888,0.703,0.652,0.412,0.525,0.635,0.269,0.374,0.154,0.379,0.377
CAL-12T,1.22,1.11,1.22,1.19,1.14,1.14,0.79,0.452,0.45,0.34,0.642,0.61,0.619,0.536,0.483,0.725,0.29,0.344,0.309,0.239
COR-L23,1.19,0.983,1.03,1,1.09,0.766,0.723,0.668,0.436,0.241,,,,,,0.638,0.462,0.306,0.248,0.236
COR-L 105,0.552,0.563,0.711,0.727,0.873,0.808,1.03,0.352,0.419,0.389,,,,,,0.685,0.587,0.415,0.271,0.344
Calu-6,0.804,0.772,0.746,0.908,0.859,0.974,0.414,0.231,0.156,0.16,,,,,,,,,,
ChaGo-K-1,0.816,0.939,,0.902,0.801,,,,,,0.909,0.859,0.793,0.781,0.807,0.729,0.515,0.511,0.646,0.464
